Test results: patent publication US7662851B2, “Use of specific cyklolignans” (Axelar AB, priority 2001, dated 2010)

Columns and labels:
EGFR tyrosine kinase = EGFR tyrosine kinase (Homo sapiens, UniProt P00533); test: In vitro tyrosine kinase assay: substrate phosphorylation by EGFR, cell-free; type: biochemical; conditions: FIG. 3
[1] = system: BE (melanoma cells) xenografts; test: Tumor growth of BE xenografts in nude mice; type: in vivo; conditions: 28 mg/kg i.p. daily 4-6 days, then 4-6 days without treatment, FIG. 6
Experimental: Control mice were treated with the solvent. 3-6 animals were treated in each group.
Because of the toxicity of podophyllotoxin and deoxypodophyllotoxin, we only used picropodophyllin to analyze effects on tumor xenografts. For this purpose ES-1 (Ewing's sarcoma cells) and BE (melanoma cells) xenografts were established in nude mice. When the ES-1 and BE tumors started growing subcutaneously and were measurable, mice were treated daily with intraperitoneal injections of picropodophyllin (28 mg/kg, which was required for giving an average concentration above 0.05 μM of picropodophyllin in the blood plasma) or 80% DMSO in saline as a carrier for 4-6 days, followed by 4-6 days without treatment. The mice were then killed and the tumors analyzed by an experienced pathologist.

[2] = system: HL60/0 acute myeloid leukemia cells; test: Leukemia cell viability, HL60/0; type: cell-based, human; conditions: Homo sapiens, HL-60; HL60, 72 h; read-out: IC50 for cell viability
Experimental: (§1) The human chronic myeloid leukemia K562/S and K562/Vcr30 lines and the acute myeloid leukemia cell lines HL60/0 and HL60/Nov were obtained from ATCC. The K562/S and […] are wild type (non-resistant) cells, whereas K562/Vcr30 and HL60/Nov are cytostatic-resistant sublines. All leukemia cell lines were cultured in RPMI 1640 medium supplemented with 10% fetal bovine serum and with 2 mM L-glutamine, benzylpenicillin (100 U/ml) and streptomycin (100 μg/ml). The cells were grown in tissue culture flasks maintained at 95% air/5% CO2 atmosphere at 37° C. in a humidified incubator. For the experiments cells were cultured in 60-mm plastic dishes or 96-well plastic plates.
(§2) Cell proliferation kit II (Roche Inc.) is based on colorimetric change of the yellow tetrazolium salt XTT in orange formazan dye by the respiratory chain of viable cells (Roehm, N W, et al., J Immunol Methods 142:257-265, 1991). Cells seeded at a concentration of 5000/well in 100 μl medium in a 96-well plate were treated with different drugs in the given concentration. After 24 or 48 h the cells were incubated, according to the manufacturer's protocol, with XTT labelling mixture. After 4 h the formazan dye is quantified using a scanning multiwell spectrophotometer with a 495-nm filter. The absorbance is directly correlated with the number of viable cells. The standard absorbance curve was drawn by means of untreated cells seeded at a concentration of from 1000 to 10 000 cells/well with an increasing rate of 1000 cells/well. All standards and experiments were performed in triplicates.
Cells of said cell lines were seeded in 96-well plates (25 000 cells/well, medium volume per well was 100 μl), in […] medium supplemented with fetal calf serum. After 24 h picropodophyllin and the derivatives alpha-apopicropodophyllin and beta-apopicropodo-phyllin were added at different concentrations and the cells were incubated for 72 h. Cell viability was then assayed (see above). […] The results are based on 3 different experiments.
The leukemia cell lines K562/S, […], HL60/0 and HL60/Nov were cultured in 96-well plates as described in Experiment 7. After 24 h, the cells were treated for 72 h with different concentrations of the anti-cancer agent vincristine, with and without co-incubation with 0.05 μM picropodophyllin. […] Cell viability was then assayed. IC50 values for each inhibitor and cell line are shown below (Table 8). The results are based on 3 different experiments.

[3] = system: leukemia cell lines (K562/S, K562/Vcr30, HL60/0 and HL60/Nov); test: Leukemia cell viability, summary over the four cell lines; type: cell-based, human; conditions: 72 h
Experimental: as §1
as §2, with “After 24 or 48 h the cells were incubated, according to the manufacturer's protocol, with XTT labelling mixture.” left out, “All standards and experiments were performed in triplicates.” left out

IGF-1R = IGF-1R (Homo sapiens, UniProt P08069); test: In vitro tyrosine kinase assay: IGF-1R-catalyzed substrate phosphorylation of polyTyrGlu (pTG), cell-free; type: biochemical; parameters: expressed in transfected cells; host or cells: P6 cell line (murine fibroblasts overexpressing human IGF-1R); receptor captured on plates with an antibody to the beta subunit; conditions: FIG. 3
Experimental: IGF-1R-catalyzed substrate phosphorylation of polyTyrGlu (pTG) was performed essentially as previously described [Parrizas M., et al., ibid., and Blum G., et al., ibid.]. Immunoprecipitated IR from HepG2, IGF-1R from P6 cell extract and immunodepleted supernatant to assay non-IGF-1R tyrosine kinases. The phosphorylated polymer substrate was probed with a purified phosphotyrosine specific monoclonal antibody conjugated to horseradish peroxidase (HARP). Color was developed with HRP chromogenic substrate o-phenylene-diamine dihydrochloride (OPD). The color was quantitated by spectrophotometry (ELISA reader) and reflects the relative amount of tyrosine kinase. The precipitate was immunoblotted with anti-bodies to IGF-1R and IR to verify the presence of the receptor. Serial dilutions were used to assay the optimal conditions with respect to the amount of IGF-1R and IR. The signal was linear for 30 minutes and was a function of IGF-1R concentration up to 75 ng/well. […] After spectrophotometry the IC50 values of inhibitors were determined using the Regression function of Statistica program.
Therefore we isolated the receptor and determined the effects of picropodophyllin on IGF-1R catalyzed substrate tyrosine phosphorylation and IGF-1R autophosphorylation in-vitro.

[4] = system: DWB malignant melanoma cell line; test: Cell viability (XTT), DWB; type: cell-based; conditions: 48 h
Experimental: as §2
12 different types of cell lines were seeded in 96-well plates (medium volume in a well was 100 μl), at a concentration of 10,000 cells/cm^2 in Minimal Essential Medium supplemented with fetal calf serum. When the cells had reached a concentration of 65,000 cells/cm^2, they were treated with different doses of podophyllotoxin and picropodophyllin for 48 h. Cell viability was then assayed (see above). […]

β-tubulin = conditions: in vitro; read-out: IC50, binding to β-tubulin; cited from earlier work

Sequence of IGF-1R (P08069 31-1367): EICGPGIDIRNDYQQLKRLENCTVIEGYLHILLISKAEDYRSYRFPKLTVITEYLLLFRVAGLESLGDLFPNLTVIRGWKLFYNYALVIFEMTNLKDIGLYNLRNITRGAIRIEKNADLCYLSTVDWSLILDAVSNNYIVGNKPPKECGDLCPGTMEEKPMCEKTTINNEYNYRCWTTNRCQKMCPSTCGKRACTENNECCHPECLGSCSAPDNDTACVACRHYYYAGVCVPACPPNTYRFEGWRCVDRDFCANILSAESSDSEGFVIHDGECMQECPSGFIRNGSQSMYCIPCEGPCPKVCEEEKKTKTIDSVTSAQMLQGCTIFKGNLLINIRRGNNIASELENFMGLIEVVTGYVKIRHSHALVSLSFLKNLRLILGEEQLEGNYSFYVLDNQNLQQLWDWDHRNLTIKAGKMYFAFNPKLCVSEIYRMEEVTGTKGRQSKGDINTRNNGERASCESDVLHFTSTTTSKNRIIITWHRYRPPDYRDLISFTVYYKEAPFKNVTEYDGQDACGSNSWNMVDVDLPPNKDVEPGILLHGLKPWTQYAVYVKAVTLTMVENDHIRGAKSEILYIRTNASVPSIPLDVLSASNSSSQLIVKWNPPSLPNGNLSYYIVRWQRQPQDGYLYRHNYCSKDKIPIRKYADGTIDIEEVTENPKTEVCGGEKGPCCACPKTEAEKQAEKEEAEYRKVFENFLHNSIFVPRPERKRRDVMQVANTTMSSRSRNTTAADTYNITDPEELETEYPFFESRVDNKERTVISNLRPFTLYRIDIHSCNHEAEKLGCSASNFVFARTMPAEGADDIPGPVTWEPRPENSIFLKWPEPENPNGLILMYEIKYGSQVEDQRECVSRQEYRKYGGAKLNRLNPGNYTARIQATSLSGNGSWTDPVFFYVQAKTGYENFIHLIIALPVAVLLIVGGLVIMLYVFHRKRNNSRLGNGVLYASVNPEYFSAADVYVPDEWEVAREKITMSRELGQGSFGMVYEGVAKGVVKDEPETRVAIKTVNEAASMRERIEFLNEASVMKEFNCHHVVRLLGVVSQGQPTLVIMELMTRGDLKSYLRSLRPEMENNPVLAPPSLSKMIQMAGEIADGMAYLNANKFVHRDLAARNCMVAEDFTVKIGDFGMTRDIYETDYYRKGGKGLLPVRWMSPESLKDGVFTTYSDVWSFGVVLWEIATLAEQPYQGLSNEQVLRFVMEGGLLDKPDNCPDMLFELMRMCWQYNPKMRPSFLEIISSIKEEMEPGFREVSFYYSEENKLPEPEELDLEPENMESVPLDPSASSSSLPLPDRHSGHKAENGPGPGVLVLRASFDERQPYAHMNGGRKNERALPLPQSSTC
Sequence of EGFR tyrosine kinase (P00533 25-1210): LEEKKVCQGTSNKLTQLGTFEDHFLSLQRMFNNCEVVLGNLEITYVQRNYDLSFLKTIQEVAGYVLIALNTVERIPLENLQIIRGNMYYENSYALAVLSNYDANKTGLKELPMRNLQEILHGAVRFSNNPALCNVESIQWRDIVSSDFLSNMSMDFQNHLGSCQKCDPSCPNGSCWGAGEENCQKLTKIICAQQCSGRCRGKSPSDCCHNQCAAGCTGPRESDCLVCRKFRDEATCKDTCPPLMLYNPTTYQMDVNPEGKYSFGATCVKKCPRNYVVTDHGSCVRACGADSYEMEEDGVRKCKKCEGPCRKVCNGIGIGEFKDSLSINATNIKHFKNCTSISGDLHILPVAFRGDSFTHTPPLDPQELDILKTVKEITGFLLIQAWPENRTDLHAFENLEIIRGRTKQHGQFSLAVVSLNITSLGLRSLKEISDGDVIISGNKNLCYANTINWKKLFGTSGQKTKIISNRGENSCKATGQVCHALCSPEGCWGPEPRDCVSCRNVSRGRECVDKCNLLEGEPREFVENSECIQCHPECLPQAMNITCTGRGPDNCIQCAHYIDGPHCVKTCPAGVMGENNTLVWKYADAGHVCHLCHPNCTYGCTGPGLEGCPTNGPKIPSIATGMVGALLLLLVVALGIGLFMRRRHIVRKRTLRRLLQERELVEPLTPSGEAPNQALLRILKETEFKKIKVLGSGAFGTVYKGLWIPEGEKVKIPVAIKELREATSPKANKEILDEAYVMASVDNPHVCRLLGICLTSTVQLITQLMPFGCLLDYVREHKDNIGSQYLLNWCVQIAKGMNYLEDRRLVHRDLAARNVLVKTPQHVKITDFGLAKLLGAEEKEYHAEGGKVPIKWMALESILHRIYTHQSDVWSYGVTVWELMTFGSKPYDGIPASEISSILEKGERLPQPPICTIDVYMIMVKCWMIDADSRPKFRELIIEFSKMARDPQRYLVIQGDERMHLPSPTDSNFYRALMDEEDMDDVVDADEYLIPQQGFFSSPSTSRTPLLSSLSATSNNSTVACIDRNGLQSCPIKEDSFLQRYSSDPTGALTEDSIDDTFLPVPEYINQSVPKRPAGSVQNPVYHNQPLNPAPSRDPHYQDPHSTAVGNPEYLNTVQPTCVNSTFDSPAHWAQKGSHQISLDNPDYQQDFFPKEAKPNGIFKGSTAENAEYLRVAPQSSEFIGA

Structure (SMILES) | Interference with substrate phosphorylation of EGFR tyrosine kinase (EGFR tyrosine kinase) | Effect on tumor growth [1] | IC50 [2] [µM] | IC50 ([3]; Homo sapiens, read-out: Concentration needed to cause 50% cell death) [µM] | Cell death in the tumor cells ([3]; leukemia cell lines, 0.05 μM) | IC50 (IGF-1R) [µM] | EC50 [4] [µM] | IC50 (β-tubulin) [µM]
COc1cc([C@@H]2c3cc4c(cc3[C@H](O)[C@H]3COC(=O)[C@@H]23)OCO4)cc(OC)c1OC [Picropodophyllin, picropodophyllin] | failed to interfere | significantly inhibited growth | 0.17 | 0.11 to 0.32 | did not cause any detectable cell death | 0.006 |  | 
COc1cc([C@@H]2c3cc4c(cc3[C@H](O)[C@H]3COC(=O)[C@H]23)OCO4)cc(OC)c1OC [Podophyllotoxin, podophyllotoxin] |  |  |  |  |  |  | 0.04 | […]
